Reference: the OligoGym collection
Several values for one entry are separate records, joined by “and”; a condition that tells them apart may be missing. Identical values can stand only once. After the bases stand the sugars from the 5' end (letter, count) and the backbone: PS all phosphorothioate, else s phosphorothioate and o phosphodiester by linkage. Methylation of C is not given here. e = 2'-O-(2-methoxyethyl) (MOE); k = constrained ethyl (cEt); d = 2'-deoxy (DNA)

Biological target: IRF4
Conditions: ASO

Q: With CCTAGAGGTGCCTTCT (sugars k3 d10 k3, PS) as the sequence, how does the target mRNA inhibition (SK-MEL-28, 4 µM) read?
A: 41%

Q: “CCTCAGTTTGTGAAGC (sugars k2 d9 e3 k2, PS)” was tested. Which target mRNA inhibition (MM.1R, 1 µM) did it give?
A: 33%

Q: How did the target mRNA inhibition (MM.1R, 1 µM) turn out when “CCTCAGTTTGTGAAGC (sugars kkddddddddddkeke, PS)” was run?
A: 16%

Q: For “CCTCAGTTTGTGAAGC (sugars kkdddddddddekeke, PS)”, which target mRNA inhibition (MM.1R, 1 µM) is on record?
A: 21%

Q: For “CCTCAGTTTGTGAAGC (sugars kkkdddddddddkeke, PS)”, which target mRNA inhibition (MM.1R, 1 µM) is on record?
A: 8%

Q: How did the target mRNA inhibition (MM.1R, 1 µM) turn out when “CCTCAGTTTGTGAAGC (sugars kkkddddddddkekek, PS)” was run?
A: 3%

Q: With CCTCCATTCTAACAGA (sugars k4 d8 k4, PS) as the sequence, how does the target mRNA inhibition (SK-MEL-28, 4 µM) read?
A: -22%

Q: CCTGAAGCTTAGTTAT (sugars k3 d10 k3, PS) was tested. Which target mRNA inhibition (SK-MEL-28, 4 µM) did it give?
A: 35%

Q: With CCTGGCGGAGCATCAA (sugars k3 d10 k3, PS) as the sequence, how does the target mRNA inhibition (SK-MEL-28, 4 µM) read?
A: 42%

Q: With CCTGGGACTCAGGTGG (sugars k3 d10 k3, PS) as the sequence, how does the target mRNA inhibition (MM.1R, 0.074 µM) read?
A: 6%

Q: And the target mRNA inhibition (MM.1R, 0.222 µM)?
A: -6%

Q: And the target mRNA inhibition (MM.1R, 0.666 µM)?
A: 0%

Q: What about the target mRNA inhibition (MM.1R, 2 µM) of the same sequence?
A: 13%

Q: And the target mRNA inhibition (SK-MEL-28, 0.185 µM)?
A: 9%

Q: And the target mRNA inhibition (SK-MEL-28, 4 µM)?
A: 59%

Q: And the target mRNA inhibition (SK-MEL-28, 5 µM)?
A: 64%

Q: What about the target mRNA inhibition (SK-MEL-28, 15 µM) of the same sequence?
A: 91%

Q: CCTGGTCCAGGTTGCT (sugars k3 d10 k3, PS) was tested. Which target mRNA inhibition (SK-MEL-28, 4 µM) did it give?
A: 26%

Q: How did the target mRNA inhibition (MM.1R, 1 µM) turn out when CCTGTACACTTTGTAC (sugars k3 d10 k3, PS) was run?
A: -2%

Q: Which target mRNA inhibition (MM.1R, 1 µM) does the source give for CCTTAGGAACGAAGAG (sugars k3 d10 k3, PS) here?
A: -6%

Q: CCTTATTAGACTGACA (sugars k3 d10 k3, PS) was tested. Which target mRNA inhibition (SK-MEL-28, 4 µM) did it give?
A: 48%

Q: CCTTTAGTGTCGCCAT (sugars k3 d10 k3, PS) was tested. Which target mRNA inhibition (SK-MEL-28, 4 µM) did it give?
A: 58%

Q: CGAAACACAGTCTGCT (sugars k3 d10 k3, PS) was tested. Which target mRNA inhibition (SK-MEL-28, 4 µM) did it give?
A: 53%

Q: For CGACAAGTGGCGCAGA (sugars k3 d10 k3, PS), which target mRNA inhibition (MM.1R, 1 µM) is on record?
A: 2%

Q: With CGACAGCATAGCATTA (sugars k3 d10 k3, PS) as the sequence, how does the target mRNA inhibition (SK-MEL-28, 4 µM) read?
A: 75%

Q: Which target mRNA inhibition (SK-MEL-28, 4 µM) does the source give for CGACAGCTAAAGAACA (sugars k3 d10 k3, PS) here?
A: 37%

Q: For CGAGAACGCACGGACG (sugars k3 d10 k3, PS), which target mRNA inhibition (MM.1R, 1 µM) is on record?
A: -11%

Q: CGAGAAGAGAGGCTGA (sugars k3 d10 k3, PS) was tested. Which target mRNA inhibition (SK-MEL-28, 4 µM) did it give?
A: 7%

Q: How did the target mRNA inhibition (SK-MEL-28, 4 µM) turn out when CGAGATATAAATAGCT (sugars k3 d10 k3, PS) was run?
A: 53% and 58%

Q: For CGAGGTTGCCGAGATA (sugars k3 d10 k3, PS), which target mRNA inhibition (MM.1R, 1 µM) is on record?
A: 66% and 60%

Q: Which target mRNA inhibition (SK-MEL-28, 4 µM) does the source give for CGCAATCTTCTGCTGA (sugars k3 d10 k3, PS) here?
A: 64%

Q: CGCAATTCTCCTCAAC (sugars k3 d10 k3, PS) was tested. Which target mRNA inhibition (SK-MEL-28, 4 µM) did it give?
A: 38%

Q: How did the target mRNA inhibition (SK-MEL-28, 4 µM) turn out when CGCACTAAGTGGGCTC (sugars k3 d10 k3, PS) was run?
A: 14%

Q: For CGCACTCCGGGCACCC (sugars k3 d10 k3, PS), which target mRNA inhibition (MM.1R, 1 µM) is on record?
A: 11%

Q: Which target mRNA inhibition (SK-MEL-28, 4 µM) does the source give for CGCATAGAGCCCGTCG (sugars k3 d10 k3, PS) here?
A: 53%

Q: With CGCATAGGTCCTTCAG (sugars k3 d10 k3, PS) as the sequence, how does the target mRNA inhibition (MM.1R, 1 µM) read?
A: 6%

Q: CGCCAGCCAGATGTTT (sugars k3 d10 k3, PS) was tested. Which target mRNA inhibition (MM.1R, 1 µM) did it give?
A: -15%

Q: CGCCATGGCTGATCGC (sugars k3 d10 k3, PS) was tested. Which target mRNA inhibition (SK-MEL-28, 4 µM) did it give?
A: 53%

Q: CGCCCAATCACCTTCC (sugars k3 d10 k3, PS) was tested. Which target mRNA inhibition (MM.1R, 1 µM) did it give?
A: -19%

Q: With CGCCGGACCCCGGAGC (sugars k3 d10 k3, PS) as the sequence, how does the target mRNA inhibition (SK-MEL-28, 4 µM) read?
A: 9%

Q: For CGCCGGAGGCCGCCGT (sugars k3 d10 k3, PS), which target mRNA inhibition (SK-MEL-28, 4 µM) is on record?
A: 3%

Q: Which target mRNA inhibition (SK-MEL-28, 4 µM) does the source give for CGCGGACGCACGGAGA (sugars k3 d10 k3, PS) here?
A: 19%

Q: How did the target mRNA inhibition (MM.1R, 1 µM) turn out when CGCGGAGGACCTCGCC (sugars k3 d10 k3, PS) was run?
A: -7%

Q: How did the target mRNA inhibition (SK-MEL-28, 4 µM) turn out when CGCTCATGCCGAACTC (sugars k3 d10 k3, PS) was run?
A: 11%

Q: Which target mRNA inhibition (MM.1R, 1 µM) does the source give for CGCTGAATTGTCATGA (sugars k3 d10 k3, PS) here?
A: -1%

Q: Which target mRNA inhibition (SK-MEL-28, 4 µM) does the source give for CGCTGGACAGCCAAAC (sugars k3 d10 k3, PS) here?
A: 41%

Q: With CGCTTTCACTAAAGTC (sugars k3 d10 k3, PS) as the sequence, how does the target mRNA inhibition (SK-MEL-28, 4 µM) read?
A: 71%

Q: For CGGACGAACGCGCAAA (sugars k3 d10 k3, PS), which target mRNA inhibition (SK-MEL-28, 4 µM) is on record?
A: 39%

Q: For CGGAGGTTCCTTGAGG (sugars k3 d10 k3, PS), which target mRNA inhibition (H929, 0.04 µM) is on record?
A: 5% and 10%

Q: What about the target mRNA inhibition (KMS11, 0.2 µM) of the same sequence?
A: 28% and 21%

Q: What about the target mRNA inhibition (MM.1R, 0.0625 µM) of the same sequence?
A: 6%

Q: What about the target mRNA inhibition (MM.1R, 0.25 µM) of the same sequence?
A: 29%

Q: What about the target mRNA inhibition (MM.1R, 1 µM) of the same sequence?
A: 42% and 52%

Q: What about the target mRNA inhibition (MM.1R, 4 µM) of the same sequence?
A: 64%

Q: With CGGCAGACGGGAGCCC (sugars k3 d10 k3, PS) as the sequence, how does the target mRNA inhibition (SK-MEL-28, 4 µM) read?
A: 12%

Q: With CGGCTCCTCCTCCTTT (sugars k3 d10 k3, PS) as the sequence, how does the target mRNA inhibition (SK-MEL-28, 4 µM) read?
A: 11%

Q: How did the target mRNA inhibition (SK-MEL-28, 4 µM) turn out when CGTAAACTGAAAGACC (sugars k3 d10 k3, PS) was run?
A: 48%

Q: Which target mRNA inhibition (SK-MEL-28, 4 µM) does the source give for CGTATTTGTCGAGATC (sugars k3 d10 k3, PS) here?
A: 50%

Q: How did the target mRNA inhibition (MM.1R, 1 µM) turn out when CGTCGCAGGAGCGCGG (sugars k3 d10 k3, PS) was run?
A: 1%

Q: How did the target mRNA inhibition (SK-MEL-28, 4 µM) turn out when CGTCTTCCAGGTGGGA (sugars k3 d10 k3, PS) was run?
A: 16%

Q: How did the target mRNA inhibition (SK-MEL-28, 4 µM) turn out when CGTGAGAATGTTGGCT (sugars k3 d10 k3, PS) was run?
A: 49%
